Measured values taken from PubChem BioAssay AID493112 (Sanford-Burnham Center for Chemical Genomics, 2011).
The source made the active and inactive calls.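 Rule for the calls: active = mean half-maximal activation concentration below 100 µM; inactive = the rest.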

Target: Alkaline phosphatase, tissue-nonspecific isozyme (Homo sapiens) (UniProt P05186)
Assay: effect of analogs on TNAP activity, SAR follow-up, selectivity assay for human IAP activator project, biochemical, human TNAP (AID 493112)
Conditions: purified TNAP, CDP-Star luminescence, 30 min

Sequence of Alkaline phosphatase, tissue-nonspecific isozyme (Homo sapiens) (P05186 whole entry, looked up): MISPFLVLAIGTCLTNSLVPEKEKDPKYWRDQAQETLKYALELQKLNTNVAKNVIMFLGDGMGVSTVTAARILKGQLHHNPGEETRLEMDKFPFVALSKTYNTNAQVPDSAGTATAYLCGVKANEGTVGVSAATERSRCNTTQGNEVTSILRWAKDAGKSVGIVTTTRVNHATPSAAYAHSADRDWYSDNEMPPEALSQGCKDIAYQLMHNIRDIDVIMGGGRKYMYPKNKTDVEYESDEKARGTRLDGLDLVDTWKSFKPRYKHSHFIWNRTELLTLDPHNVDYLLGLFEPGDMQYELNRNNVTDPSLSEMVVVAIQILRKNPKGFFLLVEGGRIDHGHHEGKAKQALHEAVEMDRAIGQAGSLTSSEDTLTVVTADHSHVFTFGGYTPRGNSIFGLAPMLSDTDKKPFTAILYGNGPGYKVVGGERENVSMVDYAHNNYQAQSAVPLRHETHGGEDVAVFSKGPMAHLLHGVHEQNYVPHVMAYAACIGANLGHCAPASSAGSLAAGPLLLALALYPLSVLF

Row | IC50 (inhibition of TNAP activity) | SMILES
1 | > 100 µM (inactive) | O=C(NN=Cc1ccc(O)cc1O)C(=O)NN=Cc1ccc(O)cc1O
2 | 15.3 µM | O=C(NNC(=S)NC(=O)c1ccccc1[N+](=O)[O-])c1ccccc1O
3 | > 100 µM (inactive) | CCN(CC)c1ccc(/C=N/NC(=O)C(=O)N/N=C/c2ccc(N(CC)CC)cc2O)c(O)c1
4 | > 100 µM (inactive) | COc1ccc(-c2cc(C(=O)NN=Cc3c(O)ccc4ccccc34)[nH]n2)cc1
5 | > 100 µM (inactive) | O=C(N/N=C/c1c(O)ccc2ccccc12)C(=O)N/N=C/c1c(O)ccc2ccccc12
6 | > 100 µM (inactive) | COc1cc(/C=N\NC(=O)C(=O)N/N=C/c2cc(OC)c(O)c(OC)c2)cc(OC)c1O
7 | > 100 µM (inactive) | C/C(=N\NC(=O)c1cc(C)[nH]n1)c1ccc2ccccc2c1O
8 | > 100 µM (inactive) | COc1cccc(C=NNC(=O)C(=O)NN=Cc2cccc(OC)c2O)c1O
9 | > 100 µM (inactive) | O=C(N/N=C/c1cc(Br)ccc1O)C(=O)N/N=C/c1cc(Br)ccc1O
10 | > 100 µM (inactive) | CCCCOc1ccc(/C=N/NC(=O)C(=O)N/N=C/c2ccc(OCCCC)cc2)cc1
11 | 6.16 µM | Cc1ccc(-c2cc(C(=O)NN=Cc3ccccc3O)n[nH]2)o1
12 | 36.2 µM | O=C(N/N=C/c1ccccc1C(=O)O)C(=O)N/N=C/c1ccccc1C(=O)O
13 | > 100 µM (inactive) | Cc1cc(C(=O)NN=Cc2cc(Cl)cc([N+](=O)[O-])c2O)n[nH]1
14 | > 100 µM (inactive) | O=C(N/N=C\c1cccc(O)c1)C(=O)N/N=C/c1cccc(O)c1
15 | > 100 µM (inactive) | COc1ccc(/C=N/NC(=O)C(=O)N/N=C/c2ccc(OC)c(OC)c2)cc1OC
16 | > 100 µM (inactive) | CC(=O)Nc1ccc(/C=N/NC(=O)C(=O)N/N=C/c2ccc(NC(C)=O)cc2)cc1
17 | 69.5 µM | COc1ccc(OC)c(/C=N/NC(=O)C(=O)N/N=C/c2cc(OC)ccc2OC)c1
18 | 7.22 µM | Cc1cc(C(=O)N/N=C\c2cc(C(C)(C)C)ccc2O)n[nH]1
19 | 11.5 µM | O=C(NC(=S)NNC(=O)c1ccccc1O)c1ccc(F)cc1
20 | 10.3 µM | CC(=O)Nc1cccc(C(=O)NNC(=O)c2n[nH]c(=O)c3ccccc23)c1
21 | 8.03 µM | O=C(N/N=C/c1cc(Br)ccc1O)c1cc(C2CC2)[nH]n1
22 | > 100 µM (inactive) | COC(=O)c1ccc(/C=N/NC(=O)C(=O)N/N=C/c2ccc(C(=O)OC)cc2)cc1
23 | 10.9 µM | COc1cccc(C=NNC(=O)c2[nH]nc3c2CCc2ccccc2-3)c1O
24 | 8.35 µM | Cc1cc(C(=O)N/N=C/c2cc(Br)ccc2O)n[nH]1
25 | > 100 µM (inactive) | O=C(NN=Cc1c(O)ccc2ccccc12)c1[nH]ncc1Br
26 | 12.1 µM | COc1cccc(C=NNC(=O)C2=NNC(=O)C2C)c1O (stereo not given)
27 | 4.74 µM | O=C(N/N=C/c1ccccc1O)c1n[nH]c2c1CCC2
28 | 9.52 µM | COc1cccc(C=NNC(=O)c2cc(-c3cccn3C)n[nH]2)c1O

Row | IC50 (inhibition of TNAP activity) | SMILES
29 | > 100 µM (inactive) | O=C(N/N=C/c1ccc(O)cc1)C(=O)N/N=C/c1ccc(O)cc1
30 | > 100 µM (inactive) | CC(=NNC(=O)C(=O)NN=C(C)c1cccc(O)c1)c1cccc(O)c1
31 | > 100 µM (inactive) | CCOc1cc(/C=N/NC(=O)C(=O)N/N=C/c2ccc(O)c(OCC)c2)ccc1O
32 | > 100 µM (inactive) | COc1ccc(-c2csc(Nc3cccc4ccccc34)n2)cc1F
33 | 12.2 µM | CCOc1cccc(C=NNC(=O)c2cc(C3CC3)[nH]n2)c1O
34 | > 100 µM (inactive) | O=C(CCN1C(=O)/C(=C/c2ccccc2Cl)SC1=S)NNC(=O)c1ccccc1O
35 | > 100 µM (inactive) | Cc1cc(C(=O)NN=Cc2cccc([N+](=O)[O-])c2O)n[nH]1
36 | 15.6 µM | Cc1ccc(O)c(C=NNC(=O)c2[nH]ncc2Br)c1
37 | 7.51 µM | O=C(N/N=C/c1ccccc1O)c1cc(C2CC2)[nH]n1
38 | 10.2 µM | CCOc1cccc(C=NNC(=O)c2cc(-c3cccn3C)n[nH]2)c1O
39 | 10.9 µM | COc1cc(OC)cc(C(=O)NNC(=O)c2nn(C)c(=O)c3ccccc23)c1
40 | 36.1 µM | COc1cccc(C=NNC(=O)C(=O)NN=Cc2cccc(OC)c2OC)c1OC
41 | 7.21 µM | OC(c1nc2ccc(F)cc2[nH]1)C(O)c1nc2ccc(F)cc2[nH]1 (stereo not given)
42 | 10.4 µM | CC(C)C(=O)NC(=S)Nc1ccccc1C(=O)Nc1ccccc1
43 | 9.38 µM | Cn1cccc1-c1cc(C(=O)NN=Cc2cc(Br)ccc2O)[nH]n1
44 | > 100 µM (inactive) | CC1C(=O)NN=C1C(=O)NN=Cc1ccc(O)cc1O (stereo not given)
45 | 8.78 µM | C/C(=N\NC(=O)c1[nH]nc2c1CCc1ccccc1-2)c1ccccc1O
46 | > 100 µM (inactive) | O=C(N/N=C/c1c(O)ccc2ccccc12)c1cc(-c2cccs2)[nH]n1
47 | 24.5 µM | O=C(NN=Cc1ccccc1)C(=O)NN=Cc1ccccc1
48 | > 100 µM (inactive) | COc1cc(/C=N/NC(=O)C(=O)N/N=C/c2ccc(O)c(OC)c2)ccc1O
49 | 54.3 µM | CC(C)Oc1ccccc1/C=N/NC(=O)C(=O)N/N=C/c1ccccc1OC(C)C
50 | > 100 µM (inactive) | COc1cc(/C=N/NC(=O)C(=O)N/N=C/c2cc(OC)c(OC)c(OC)c2)cc(OC)c1OC
51 | > 100 µM (inactive) | O=C(N/N=C/c1ccc2c(c1)OCO2)C(=O)N/N=C/c1ccc2c(c1)OCO2
52 | > 100 µM (inactive) | CN(C)c1ccc(/C=N/NC(=O)C(=O)N/N=C/c2ccc(N(C)C)cc2)cc1
53 | > 100 µM (inactive) | COc1cc(OC)c(OC)cc1/C=N/NC(=O)C(=O)N/N=C/c1cc(OC)c(OC)cc1OC
54 | > 100 µM (inactive) | N#CCOc1ccccc1/C=N/NC(=O)C(=O)N/N=C/c1ccccc1OCC#N
55 | > 100 µM (inactive) | O=C(N/N=C\c1ccc2c(c1)OCO2)C(=O)N/N=C/c1ccc2c(c1)OCO2
